The values that follow come from US20230295197A1, “STAT5 and STAT6 Degraders and Uses Thereof” (REGENTS OF THE UNIVERSITY OF MICHICAN, priority 2022, published 2023).

Structures are written as SMILES. Some results are limits rather than exact numbers.

As a reminder, the DC50 is the midpoint of the concentration-degradation curve.

In the assay the target is T1, STAT6 (Homo sapiens, UniProt P42226).
T1 construct: endogenous in cells; host or cells: MOLM-16, KU-812, SKNO1, MB231, L1236
T1 sequence (P42226 1-847): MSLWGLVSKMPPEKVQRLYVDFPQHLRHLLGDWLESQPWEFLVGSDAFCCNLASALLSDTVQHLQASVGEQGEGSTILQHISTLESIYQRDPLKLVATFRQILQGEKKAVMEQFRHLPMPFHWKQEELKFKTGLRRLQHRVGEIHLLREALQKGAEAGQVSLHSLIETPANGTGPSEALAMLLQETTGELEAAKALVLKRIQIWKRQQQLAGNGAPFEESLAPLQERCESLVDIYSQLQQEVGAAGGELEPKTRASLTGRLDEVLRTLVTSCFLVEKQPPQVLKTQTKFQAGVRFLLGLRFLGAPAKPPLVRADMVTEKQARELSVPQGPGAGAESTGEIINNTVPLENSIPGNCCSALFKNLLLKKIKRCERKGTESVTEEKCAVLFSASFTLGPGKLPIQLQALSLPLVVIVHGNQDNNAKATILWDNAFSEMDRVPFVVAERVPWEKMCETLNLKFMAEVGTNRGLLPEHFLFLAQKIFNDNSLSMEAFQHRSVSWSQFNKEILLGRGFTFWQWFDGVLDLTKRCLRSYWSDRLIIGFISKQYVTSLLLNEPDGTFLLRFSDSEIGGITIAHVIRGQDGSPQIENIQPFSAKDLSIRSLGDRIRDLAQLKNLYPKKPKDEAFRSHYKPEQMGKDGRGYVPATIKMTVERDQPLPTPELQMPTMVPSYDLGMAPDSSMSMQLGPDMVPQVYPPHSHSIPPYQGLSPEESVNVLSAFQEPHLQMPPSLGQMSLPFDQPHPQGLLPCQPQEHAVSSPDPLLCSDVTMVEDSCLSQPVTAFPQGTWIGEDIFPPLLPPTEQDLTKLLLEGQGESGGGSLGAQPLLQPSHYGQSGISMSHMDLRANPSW
The experiment in a line: Immunoblotting (Western blot) analysis of STAT6 degradation efficiency of degraders in treated cells. It is filed as cell-based. Particulars: MOLM-16 cells, class symbols, read-out: DC50 S6 MOLM-16. The method in brief: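 Each data point uses roughly one million cells dosed as indicated; pellets are lysed on ice, freeze-thawed, and clarified. Reduced, denatured samples (95 °C, 5 min) run on SDS gels, then membranes receive rabbit mAbs to STAT5 or STAT6 plus mouse anti-GAPDH overnight, followed by dye-labelled secondaries for fluorescence imaging.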
A general note: A western blot detects proteins with antibodies after separation by electrophoresis.
In the case of `CC(C)(C)[C@H](NC(=O)c1cc2cc(C(F)(F)P(=O)(O)O)ccc2s1)C(=O)N1C[C@@H](OCC(=O)NCCC#Cc2cccc3c2C(=O)N(C2CCC(=O)NC2=O)C3=O)C[C@H]1C(=O)N1CCC[C@H](c2ccccc2)C1` (stereo partly drawn) [Compound 495, ((2-(((2S)-1-((2S,4S)-4-(2-((4-(2-(2,6-dioxopiperidin-3-yl)-1,3-dioxoisoindolin-4-yl)but-3-yn-1-yl)amino)-2-oxoethoxy)-2-((R)-3-phenylpiperidine-1-carbonyl)pyrrolidin-1-yl)-3,3-dimethyl-1-oxobutan-2-yl)carbamoyl)benzo[b]thiophen-5-yl)difluoromethyl)phosphonic acid], the DC50 is greater than 10 µM. Turning to `CC(C)(C)[C@H](NC(=O)c1cc2cc(C(F)(F)P(=O)(O)O)ccc2s1)C(=O)N1C[C@@H](OCC(=O)NCCC#Cc2ccc3c(c2)C(=O)N(C2CCC(=O)NC2=O)C3=O)C[C@H]1C(=O)N1CCC[C@H](c2ccccc2)C1` (stereo partly drawn) [Compound 496, ((2-(((2S)-1-((2S,4S)-4-(2-((4-(2-(2,6-dioxopiperidin-3-yl)-1,3-dioxoisoindolin-5-yl)but-3-yn-1-yl)amino)-2-oxoethoxy)-2-((R)-3-phenylpiperidine-1-carbonyl)pyrrolidin-1-yl)-3,3-dimethyl-1-oxobutan-2-yl)carbamoyl)benzo[b]thiophen-5-yl)difluoromethyl)phosphonic acid], the DC50 is greater than 10 µM. As for `CC(C)(C)[C@H](NC(=O)c1cc2cc(C(F)(F)P(=O)(O)O)ccc2s1)C(=O)N1C[C@@H](OCC(=O)NCCCC#Cc2cccc3c2C(=O)N(C2CCC(=O)NC2=O)C3=O)C[C@H]1C(=O)N1CCC[C@H](c2ccccc2)C1` (stereo partly drawn) [Compound 497, ((2-(((2S)-1-((2S,4S)-4-(2-((5-(2-(2,6-dioxopiperidin-3-yl)-1,3-dioxoisoindolin-4-yl)pent-4-yn-1-yl)amino)-2-oxoethoxy)-2-((R)-3-phenylpiperidine-1-carbonyl)pyrrolidin-1-yl)-3,3-dimethyl-1-oxobutan-2-yl)carbamoyl)benzo[b]thiophen-5-yl)difluoromethyl)phosphonic acid], the 50% degradation concentration (DC50) is greater than 10 µM. `CC(C)(C)[C@H](NC(=O)c1cc2cc(C(F)(F)P(=O)(O)O)ccc2s1)C(=O)N1C[C@@H](OCC(=O)NCCCC#Cc2ccc3c(c2)C(=O)N(C2CCC(=O)NC2=O)C3=O)C[C@H]1C(=O)N1CCC[C@H](c2ccccc2)C1` (stereo partly drawn) [Compound 498, ((2-(((2S)-1-((2S,4S)-4-(2-((5-(2-(2,6-dioxopiperidin-3-yl)-1,3-dioxoisoindolin-5-yl)pent-4-yn-1-yl)amino)-2-oxoethoxy)-2-((R)-3-phenylpiperidine-1-carbonyl)pyrrolidin-1-yl)-3,3-dimethyl-1-oxobutan-2-yl)carbamoyl)benzo[b]thiophen-5-yl)difluoromethyl)phosphonic acid]: the DC50 was greater than 10 µM.

For the compound `CC(C)(C)[C@H](NC(=O)c1cc2cc(C(F)(F)P(=O)(O)O)ccc2s1)C(=O)N1C[C@@H](OCC(=O)NCCCCC#Cc2cccc3c2C(=O)N(C2CCC(=O)NC2=O)C3=O)C[C@H]1C(=O)N1CCC[C@H](c2ccccc2)C1` (stereo partly drawn) [Compound 499, ((2-(((2S)-1-((2S,4S)-4-(2-((6-(2-(2,6-dioxopiperidin-3-yl)-1,3-dioxoisoindolin-4-yl)hex-5-yn-1-yl)amino)-2-oxoethoxy)-2-((R)-3-phenylpiperidine-1-carbonyl)pyrrolidin-1-yl)-3,3-dimethyl-1-oxobutan-2-yl)carbamoyl)benzo[b]thiophen-5-yl)difluoromethyl)phosphonic acid], the DC50 is greater than 10 µM. To `CC(C)(C)[C@H](NC(=O)c1cc2cc(C(F)(F)P(=O)(O)O)ccc2s1)C(=O)N1C[C@@H](OCC(=O)NCCCCC#Cc2ccc3c(c2)C(=O)N(C2CCC(=O)NC2=O)C3=O)C[C@H]1C(=O)N1CCC[C@H](c2ccccc2)C1` (stereo partly drawn) [Compound 500, ((2-(((2S)-1-((2S,4S)-4-(2-((6-(2-(2,6-dioxopiperidin-3-yl)-1,3-dioxoisoindolin-5-yl)hex-5-yn-1-yl)amino)-2-oxoethoxy)-2-((R)-3-phenylpiperidine-1-carbonyl)pyrrolidin-1-yl)-3,3-dimethyl-1-oxobutan-2-yl)carbamoyl)benzo[b]thiophen-5-yl)difluoromethyl)phosphonic acid] belongs greater than 10 µM.

`CC(C)(C)[C@H](NC(=O)c1cc2cc(C(F)(F)P(=O)(O)O)ccc2s1)C(=O)N1C[C@@H](OCC(=O)NCCCCCC#Cc2cccc3c2C(=O)N(C2CCC(=O)NC2=O)C3=O)C[C@H]1C(=O)N1CCC[C@H](c2ccccc2)C1` (stereo partly drawn) [Compound 501, ((2-(((2S)-1-((2S,4S)-4-(2-((7-(2-(2,6-dioxopiperidin-3-yl)-1,3-dioxoisoindolin-4-yl)hept-6-yn-1-yl)amino)-2-oxoethoxy)-2-((R)-3-phenylpiperidine-1-carbonyl)pyrrolidin-1-yl)-3,3-dimethyl-1-oxobutan-2-yl)carbamoyl)benzo[b]thiophen-5-yl)difluoromethyl)phosphonic acid]: the DC50 was greater than 10 µM. Consider `CC(C)(C)[C@H](NC(=O)c1cc2cc(C(F)(F)P(=O)(O)O)ccc2s1)C(=O)N1C[C@@H](OCC(=O)NCCCCCC#Cc2ccc3c(c2)C(=O)N(C2CCC(=O)NC2=O)C3=O)C[C@H]1C(=O)N1CCC[C@H](c2ccccc2)C1` (stereo partly drawn) [Compound 502, ((2-(((2S)-1-((2S,4S)-4-(2-((7-(2-(2,6-dioxopiperidin-3-yl)-1,3-dioxoisoindolin-5-yl)hept-6-yn-1-yl)amino)-2-oxoethoxy)-2-((R)-3-phenylpiperidine-1-carbonyl)pyrrolidin-1-yl)-3,3-dimethyl-1-oxobutan-2-yl)carbamoyl)benzo[b]thiophen-5-yl)difluoromethyl)phosphonic acid], for which the DC50 was greater than 10 µM.

For the compound `CC(C)(C)[C@H](NC(=O)c1cc2cc(C(F)(F)P(=O)(O)O)ccc2s1)C(=O)N1C[C@@H](OCC(=O)NCCCCCCCCC#Cc2cccc3c2C(=O)N(C2CCC(=O)NC2=O)C3=O)C[C@H]1C(=O)N1CCC[C@H](c2ccccc2)C1` (stereo partly drawn) [Compound 503, ((2-(((2S)-1-((2S,4S)-4-(2-((10-(2-(2,6-dioxopiperidin-3-yl)-1,3-dioxoisoindolin-4-yl)dec-9-yn-1-yl)amino)-2-oxoethoxy)-2-((R)-3-phenylpiperidine-1-carbonyl)pyrrolidin-1-yl)-3,3-dimethyl-1-oxobutan-2-yl)carbamoyl)benzo[b]thiophen-5-yl)difluoromethyl)phosphonic acid], the half-maximal degradation concentration (DC50) is greater than 10 µM.

`CC(C)(C)[C@H](NC(=O)c1cc2cc(C(F)(F)P(=O)(O)O)ccc2s1)C(=O)N1C[C@@H](OCC(=O)NCCCCCCCCC#Cc2ccc3c(c2)C(=O)N(C2CCC(=O)NC2=O)C3=O)C[C@H]1C(=O)N1CCC[C@H](c2ccccc2)C1` (stereo partly drawn) [Compound 504, ((2-(((2S)-1-((2S,4S)-4-(2-((10-(2-(2,6-dioxopiperidin-3-yl)-1,3-dioxoisoindolin-5-yl)dec-9-yn-1-yl)amino)-2-oxoethoxy)-2-((R)-3-phenylpiperidine-1-carbonyl)pyrrolidin-1-yl)-3,3-dimethyl-1-oxobutan-2-yl)carbamoyl)benzo[b]thiophen-5-yl)difluoromethyl)phosphonic acid]: the 50% degradation concentration (DC50) was greater than 10 µM. With `CC(C)(C)[C@H](NC(=O)c1cc2cc(C(F)(F)P(=O)(O)O)ccc2s1)C(=O)N1C[C@@H](OCC(=O)NCCCCCCCCCC#Cc2cccc3c2C(=O)N(C2CCC(=O)NC2=O)C3=O)C[C@H]1C(=O)N1CCC[C@H](c2ccccc2)C1` (stereo partly drawn) [Compound 505, ((2-(((2S)-1-((2S,4S)-4-(2-((11-(2-(2,6-dioxopiperidin-3-yl)-1,3-dioxoisoindolin-4-yl)undec-10-yn-1-yl)amino)-2-oxoethoxy)-2-((R)-3-phenylpiperidine-1-carbonyl)pyrrolidin-1-yl)-3,3-dimethyl-1-oxobutan-2-yl)carbamoyl)benzo[b]thiophen-5-yl)difluoromethyl)phosphonic acid] the figure was greater than 10 µM; with `CC(C)(C)[C@H](NC(=O)c1cc2cc(C(F)(F)P(=O)(O)O)ccc2s1)C(=O)N1C[C@@H](OCC(=O)NCCCCCCCCCC#Cc2ccc3c(c2)C(=O)N(C2CCC(=O)NC2=O)C3=O)C[C@H]1C(=O)N1CCC[C@H](c2ccccc2)C1` (stereo partly drawn) [Compound 506, ((2-(((2S)-1-((2S,4S)-4-(2-((11-(2-(2,6-dioxopiperidin-3-yl)-1,3-dioxoisoindolin-5-yl)undec-10-yn-1-yl)amino)-2-oxoethoxy)-2-((R)-3-phenylpiperidine-1-carbonyl)pyrrolidin-1-yl)-3,3-dimethyl-1-oxobutan-2-yl)carbamoyl)benzo[b]thiophen-5-yl)difluoromethyl)phosphonic acid], greater than 10 µM.
